Results taken from US5733719A, “Method of making an assay compound” (priority 1995, dated 1998).
Numbered stars: 1 amine (or outer) side, 2 acyl side, 3 side chain; on linkers, the order of the positions; unused ones are H or OH. Bridge positions count the residues as written; N and C are the ends. Peptide text beside a SMILES is read from it. I, II: the chains in the order shown. Rhodamine110 = O=C1OC2(c3ccc(N[*:1])cc3Oc3cc(N[*:2])ccc32)c2ccccc21

How the values were obtained:
[1] = test system: enzyme; test: Effect of dithioerythritol (DTE) on substrate sensitivity; settings: dithioerythritol (DTE) at 1 mM
Text: Modulators are components used to […] the sensitivity of the enzyme for the leaving group. The modulators speed up or slow down the activity of an enzyme by changing the active site. […] Preferred modulators for particular enzymes are included in Table 1.

[2] = test system: Lymphs; test: Peptidases to distinguish leukemia from non-leukemia, lymphocytes; format: cell-based, human; design: unit not given here
Text: (§1) Artificial intelligence was used to analyze data of cellular enzyme functions, and determine normal and disease states. Peptidases were used to distinguish leukemia from non-leukemia (output pattern). For input patterns lymphocyte and granulocyte cell types were used with aminopeptidases, cathepsins and dipeptidylpeptidase enzyme activities. In this Example, illustrated in Tables 6A-6C, three normals and three leukemia patients were used as known output patterns for the neural network to learn (in practice, the larger the learning set the more accurate unknown prediction will be). Unknowns were then presented to the learned algorithm as shown in the test case examples. Clinical diagnosis was confirmed by physicians. The trained neural network was able to correctly classify the leukemia from the non-leukemia.

[3] = test system: Grans; test: Peptidases to distinguish leukemia from non-leukemia, granulocytes; format: cell-based, human; design: unit not given here
Text: as §1

`C[C@H](N)C(=O)NCC(=O)Nc1ccc2c(c1)Oc1cc(NC(=O)CNC(=O)[C@H](C)N)ccc1C21OC(=O)c2ccccc21` [Ala-Gly] was tested, and the “effect of DTE on sensitivity” value [1] was “does not change the sensitivity”.
For `NC(=O)CC[C@H](N)C(=O)N[C@@H](CO)C(=O)Nc1ccc2c(c1)Oc1cc(NC(=O)[C@H](CO)NC(=O)[C@@H](N)CCC(N)=O)ccc1C21OC(=O)c2ccccc21` (relative stereo) [GLN-SER*], the “effect of DTE on sensitivity” value [1] was “decreases the sensitivity”.
`O=C1OC2(c3ccc(NC(=O)[C@@H]4CCCN4)cc3Oc3cc(NC(=O)[C@@H]4CCCN4)ccc32)c2ccccc21` [PRO, (H--L--Pro)2 Rho 110-2TFA] was tested, and the enzyme activity ([2]; J4 11/21/91 acute leuk.) was 0.47, the enzyme activity ([2]; J4 12/2/91 AL) was 0.29 and the enzyme activity ([2]; J4 12/3/91 acute leuk.) was 0.24. It also gave an enzyme activity ([2]; J5 11/27/91 AML) of 0.89, an enzyme activity ([2]; J19 11/27/91 CLL) of 0.44 and an enzyme activity ([2]; J22 12/2/91 AML) of 0.40. The enzyme activity ([2]; J22 12/9/91 AML) was 0.44, the enzyme activity ([2]; N99° normal) was 1.02 and the enzyme activity ([2]; N191 normal) was 0.69. For the same compound, the enzyme activity ([2]; N192 normal) was 1.14, the enzyme activity ([2]; N193 normal) was 0.95 and the enzyme activity ([2]; N194 normal) was 0.86. For the same compound, the enzyme activity ([2]; N195 normal) was 0.88, the enzyme activity ([2]; N197 normal) was 0.57 and the enzyme activity ([2]; N200 normal) was 0.74. The enzyme activity ([2]; N201 normal) was 1.10, the enzyme activity ([2]; N202 normal) was 0.89 and the enzyme activity ([2]; N206 normal) was 1.28. The enzyme activity ([2]; P68 tachycardia) was 0.70, the enzyme activity ([2]; P69 pancreatic CA) was 0.66 and the enzyme activity ([2]; P70 cirrhosis/hemobilia) was 0.56. For the same compound, the enzyme activity ([2]; P71 ac. pyelonephritis) was 0.52, the enzyme activity ([3]; J4 11/21/91 acute leuk.) was 5.77 and the enzyme activity ([3]; J4 12/2/91 AL) was 3.59. It also gave an enzyme activity ([3]; J4 12/3/91 acute leuk.) of 3.68, an enzyme activity ([3]; J5 11/27/91 AML) of 5.92 and an enzyme activity ([3]; J19 11/27/91 CLL) of 5.50. For the same compound, the enzyme activity ([3]; J22 12/2/91 AML) was 4.03, the enzyme activity ([3]; J22 12/9/91 AML) was 3.53 and the enzyme activity ([3]; N99° normal) was 4.85. For the same compound, the enzyme activity ([3]; N191 normal) was 4.34, the enzyme activity ([3]; N192 normal) was 4.34 and the enzyme activity ([3]; N193 normal) was 4.75. The enzyme activity ([3]; N194 normal) was 3.75, the enzyme activity ([3]; N195 normal) was 4.70 and the enzyme activity ([3]; N197 normal) was 3.76. The enzyme activity ([3]; N200 normal) was 4.04, the enzyme activity ([3]; N201 normal) was 6.42 and the enzyme activity ([3]; N202 normal) was 4.96. It also gave an enzyme activity ([3]; N206 normal) of 6.13, an enzyme activity ([3]; P68 tachycardia) of 7.19 and an enzyme activity ([3]; P69 pancreatic CA) of 5.70. For the same compound, the enzyme activity ([3]; P70 cirrhosis/hemobilia) was 0.66, the enzyme activity ([3]; P71 ac. pyelonephritis) was 6.33 and the “effect of DTE on sensitivity” value [1] was “decreases the sensitivity”.
In the case of `CC(C)[C@H](N)C(=O)N[C@@H](CCCCN)C(=O)N[C@H](C(=O)N[C@@H](CCCCN)C(=O)Nc1ccc2c(c1)Oc1cc(NC(=O)[C@H](CCCCN)NC(=O)[C@@H](NC(=O)[C@H](CCCCN)NC(=O)[C@@H](N)C(C)C)C(C)C)ccc1C21OC(=O)c2ccccc21)C(C)C` [Val-Lys-Val-Lys, (H--L--Val--Lys--Val--Lys)2 Rho 110-6TFA] (I: H-VKVK / II: H-VKVK; linker I:C-II:C via Rhodamine110), the “effect of DTE on sensitivity” value [1] is reported as “decreases the sensitivity”.
